Laboratory results from ChEMBL document CHEMBL4177580, “New 5-HT1A, 5HT2A and 5HT2C receptor ligands containing a picolinic nucleus: Synthesis, in vitro and in vivo pharmacological evaluation” (Bioorg Med Chem, 2017).

Key:
Rattus norvegicus = assay: In-vivo 5-HT1A receptor antagonist activity in Wistar rat assessed as reduction in 8-OH-DPAT-stimulated induction of lower lip retraction by measuring lower lip retraction score at 30 mg/kg, ip dosed 15 mins before test (reference value: 2.875 +/- 0.08183)
[1] = molecular target: T1, Adrenergic receptor alpha-1 (Rattus norvegicus, UniProt P15823+P23944+P43140); assay: Displacement of [3H]prazosin from adrenergic alpha1 receptor in rat cerebral cortex
T1 sequence (P15823 whole entry): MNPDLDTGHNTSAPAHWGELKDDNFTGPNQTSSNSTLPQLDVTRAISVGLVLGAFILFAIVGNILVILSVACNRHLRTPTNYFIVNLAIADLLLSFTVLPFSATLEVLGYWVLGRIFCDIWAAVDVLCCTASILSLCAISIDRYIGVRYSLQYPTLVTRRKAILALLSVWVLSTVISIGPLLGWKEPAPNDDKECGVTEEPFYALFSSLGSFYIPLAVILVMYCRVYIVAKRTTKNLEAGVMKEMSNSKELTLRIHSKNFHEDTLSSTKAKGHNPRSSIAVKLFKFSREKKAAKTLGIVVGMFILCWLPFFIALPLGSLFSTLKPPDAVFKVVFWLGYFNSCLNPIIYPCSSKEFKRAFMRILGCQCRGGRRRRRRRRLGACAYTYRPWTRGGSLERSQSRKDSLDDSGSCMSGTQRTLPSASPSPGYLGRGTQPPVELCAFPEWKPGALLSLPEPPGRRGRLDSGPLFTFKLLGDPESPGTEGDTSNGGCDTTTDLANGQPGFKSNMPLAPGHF
T1 sequence (P23944 whole entry): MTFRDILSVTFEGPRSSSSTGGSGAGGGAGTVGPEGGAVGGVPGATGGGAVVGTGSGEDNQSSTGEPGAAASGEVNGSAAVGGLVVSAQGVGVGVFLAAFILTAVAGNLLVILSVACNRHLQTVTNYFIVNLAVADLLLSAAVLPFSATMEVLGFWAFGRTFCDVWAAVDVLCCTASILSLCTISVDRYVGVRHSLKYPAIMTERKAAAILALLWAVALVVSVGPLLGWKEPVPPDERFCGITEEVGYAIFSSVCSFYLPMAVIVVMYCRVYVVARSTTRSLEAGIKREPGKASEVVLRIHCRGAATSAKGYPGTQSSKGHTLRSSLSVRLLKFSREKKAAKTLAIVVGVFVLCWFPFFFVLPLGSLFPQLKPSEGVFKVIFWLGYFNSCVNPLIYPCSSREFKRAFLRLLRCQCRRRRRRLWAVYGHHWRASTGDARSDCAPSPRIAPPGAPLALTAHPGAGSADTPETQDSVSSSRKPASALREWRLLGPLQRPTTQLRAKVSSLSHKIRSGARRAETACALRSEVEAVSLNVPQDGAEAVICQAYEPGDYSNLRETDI
T1 sequence (P43140 whole entry): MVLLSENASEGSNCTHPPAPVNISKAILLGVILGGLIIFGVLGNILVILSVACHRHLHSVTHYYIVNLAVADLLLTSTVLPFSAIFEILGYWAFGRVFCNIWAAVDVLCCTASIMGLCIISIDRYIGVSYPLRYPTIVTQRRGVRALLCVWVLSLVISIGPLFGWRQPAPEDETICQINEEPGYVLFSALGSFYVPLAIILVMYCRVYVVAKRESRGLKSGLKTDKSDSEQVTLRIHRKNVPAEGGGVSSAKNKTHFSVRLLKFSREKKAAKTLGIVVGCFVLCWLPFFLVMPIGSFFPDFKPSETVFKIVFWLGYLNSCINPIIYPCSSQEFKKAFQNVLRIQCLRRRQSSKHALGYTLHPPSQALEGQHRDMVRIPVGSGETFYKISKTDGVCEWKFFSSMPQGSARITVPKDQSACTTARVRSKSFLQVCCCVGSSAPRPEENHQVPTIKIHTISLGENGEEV

[2] = molecular target: T2, Adrenergic receptor alpha-2 (Rattus norvegicus, UniProt P22086+P19328+P22909); assay: Displacement of [3H]RX 821002 from adrenergic alpha2 receptor in rat cerebral cortex
T2 sequence (P22086 whole entry): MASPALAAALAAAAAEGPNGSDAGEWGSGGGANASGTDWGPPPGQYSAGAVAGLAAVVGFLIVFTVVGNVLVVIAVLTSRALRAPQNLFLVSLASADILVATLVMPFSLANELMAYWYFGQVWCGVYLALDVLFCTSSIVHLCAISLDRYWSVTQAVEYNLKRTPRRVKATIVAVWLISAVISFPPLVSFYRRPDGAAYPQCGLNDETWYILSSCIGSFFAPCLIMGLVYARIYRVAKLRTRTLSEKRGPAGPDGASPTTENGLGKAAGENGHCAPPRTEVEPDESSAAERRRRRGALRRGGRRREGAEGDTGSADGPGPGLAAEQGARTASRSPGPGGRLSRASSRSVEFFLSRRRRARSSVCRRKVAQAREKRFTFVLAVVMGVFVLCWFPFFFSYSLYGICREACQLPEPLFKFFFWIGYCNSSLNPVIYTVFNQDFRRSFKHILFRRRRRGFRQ
T2 sequence (P19328 whole entry): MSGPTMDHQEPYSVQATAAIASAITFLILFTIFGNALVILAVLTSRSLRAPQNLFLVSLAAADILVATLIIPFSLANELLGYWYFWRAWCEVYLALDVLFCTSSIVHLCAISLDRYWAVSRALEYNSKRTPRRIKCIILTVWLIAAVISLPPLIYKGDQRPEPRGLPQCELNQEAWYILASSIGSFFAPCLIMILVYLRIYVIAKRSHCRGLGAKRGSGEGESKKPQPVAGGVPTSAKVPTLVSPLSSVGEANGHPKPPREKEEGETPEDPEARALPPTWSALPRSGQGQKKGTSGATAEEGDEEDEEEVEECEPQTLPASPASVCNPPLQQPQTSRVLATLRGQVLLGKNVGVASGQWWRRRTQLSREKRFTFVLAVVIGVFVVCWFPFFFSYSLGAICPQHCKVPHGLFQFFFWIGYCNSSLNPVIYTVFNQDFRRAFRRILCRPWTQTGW
T2 sequence (P22909 whole entry): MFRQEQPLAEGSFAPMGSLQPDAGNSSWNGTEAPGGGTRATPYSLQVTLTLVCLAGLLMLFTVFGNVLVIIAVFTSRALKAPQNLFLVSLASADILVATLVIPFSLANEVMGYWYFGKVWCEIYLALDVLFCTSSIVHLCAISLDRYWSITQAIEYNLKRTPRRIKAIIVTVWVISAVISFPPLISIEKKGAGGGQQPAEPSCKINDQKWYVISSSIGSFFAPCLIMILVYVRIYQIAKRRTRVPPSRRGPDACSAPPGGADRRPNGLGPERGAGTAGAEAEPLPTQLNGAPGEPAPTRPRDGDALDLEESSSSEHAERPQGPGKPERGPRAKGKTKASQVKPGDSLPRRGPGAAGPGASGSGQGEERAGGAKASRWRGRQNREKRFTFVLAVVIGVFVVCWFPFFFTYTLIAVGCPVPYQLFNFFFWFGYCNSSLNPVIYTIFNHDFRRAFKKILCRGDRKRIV

Structure (SMILES): O=C(NCCN1CCN(c2ccc(Cl)c(Cl)c2)CC1)c1ccccn1
- Activity_index (Rattus norvegicus): 2.3
- Ki [1]: 31 nM
- Ki [2]: 4200 nM
